# Values quoted from earlier work, collected in patent US20200330541A1, “COMPOSITIONS AND METHODS FOR MODULATING ENDOTHELIAL CELL MIGRATION AND ANGIOGENESIS” (University of Maine System Board of Trustees, priority 2017, published 2020).
# Columns and labels:
# [1] = healthy humans after consumption of black currant
# endothelial cell = conditions: through the JAK/STAT3 and MAPK signaling pathways
# RAC1 = conditions: smooth muscle cells, 24 hour exposure at 1 μmol/L and 100 μmol/L, compared to untreated cells
# HUVEC = conditions: 200 μM, 100 μM, and 50 μM
molecule,measurement,setting,value
"C[C@@H]1O[C@@H](OC[C@H]2O[C@@H](Oc3cc4c(O)cc(O)cc4[o+]c3-c3cc(O)c(O)c(O)c3)[C@H](O)[C@@H](O)[C@@H]2O)[C@H](O)[C@H](O)[C@H]1O [D3R, delphinidin, 3-O-β-rutinoside]",concentration in the plasma,[1],73.7 ± 35.0 nM
O=c1cc(-c2ccc(O)cc2)oc2cc(O)cc(O)c12 [apigenin],"endothelial cell migration, proliferation, and tubulogenesis",endothelial cell,inhibited
O=C(O)/C=C/c1ccc(O)c(O)c1 [caffeic acid],RAC1 protein synthesis,RAC1,significantly decreased
O=c1oc2c(O)c(O)cc3c(=O)oc4c(O)c(O)cc1c4c23 [ellagic acid],"endothelial cell migration, proliferation, and tubulogenesis",endothelial cell,inhibited
OC[C@H]1O[C@@H](Oc2cc3c(O)cc(O)cc3[o+]c2-c2ccc(O)cc2)[C@H](O)[C@@H](O)[C@@H]1O [pelargonidin-3-glucoside],cell proliferation and smooth muscle cell migration,smooth muscle cell,inhibitory effect
Delph inidin-3-(p-coumaroylrutinoside)-5-glucoside [nasunin],HUVEC proliferation rate,HUVEC,inhibit
epigallocatechin-3 gallate,"endothelial cell migration, proliferation, and tubulogenesis",endothelial cell,inhibited
